Test results: ChEMBL document CHEMBL4417635, “2-hydroxyarylamide derivative or pharmaceutically acceptable salt thereof, preparation method thereof, and pharmaceutical composition for preventing or treating cancer containing same as active ingredient” (2013)

Tests used:
[1] = molecular target: Transmembrane protease serine 4 (Homo sapiens) (UniProt Q9NRS4); assay: (§1) Inhibition of TMPRSS4 serine protease domain (Val 205 to Leu 437 residues) (unknown origin) expressed in Escherichia coli BL21 (DE3) using […]-Gln-Ala-Arg-7-amido-4-methylcoumarin hydrochloride substrate and measured for 5 mins at 5 mins intervals by fluorescence based assay relative to control
[2] = molecular target: Transmembrane protease serine 4 (Homo sapiens) (UniProt Q9NRS4); assay: as §1, with “(DE3) at 30 uM” for “(DE3)”
[3] = molecular target: Transmembrane protease serine 4 (Homo sapiens) (UniProt Q9NRS4); assay: as §1, with “(DE3) at 10 uM” for “(DE3)”
[4] = molecular target: Transmembrane protease serine 4 (Homo sapiens) (UniProt Q9NRS4); assay: as §1, with “(DE3) at 100 uM” for “(DE3)”
[5] = molecular target: Transmembrane protease serine 4 (Homo sapiens) (UniProt Q9NRS4); assay: Inhibition of TMPRSS4 (unknown origin) expressed in human SW480 cells assessed as reduction in cell migration at 0.8 uM incubated for 48 hrs by crystal violet staining based assay relative to control

Sequence of Transmembrane protease serine 4 (Homo sapiens) (Q9NRS4 whole entry, the tested form may be a part): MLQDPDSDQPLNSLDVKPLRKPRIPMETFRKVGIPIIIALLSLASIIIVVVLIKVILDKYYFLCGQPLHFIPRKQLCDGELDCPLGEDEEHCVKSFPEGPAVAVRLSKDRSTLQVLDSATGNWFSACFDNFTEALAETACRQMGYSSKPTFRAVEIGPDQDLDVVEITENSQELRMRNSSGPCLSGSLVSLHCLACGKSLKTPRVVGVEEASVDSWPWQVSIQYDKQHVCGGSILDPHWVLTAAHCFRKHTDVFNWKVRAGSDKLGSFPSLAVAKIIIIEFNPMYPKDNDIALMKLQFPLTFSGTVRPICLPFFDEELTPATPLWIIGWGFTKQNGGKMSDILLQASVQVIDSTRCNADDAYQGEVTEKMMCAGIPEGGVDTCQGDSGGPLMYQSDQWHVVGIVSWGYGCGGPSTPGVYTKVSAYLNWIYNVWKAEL

| SMILES | inhibition [1] | inhibition [2] [%] | inhibition [3] [%] | inhibition [4] [%] | inhibition [5] [%] |
| --- | --- | --- | --- | --- | --- |
| O=C(Nc1ccncc1Cl)c1cc(Cl)ccc1O | Dose-dependent effect | 8 | – | – | – |
| COc1c(C(F)(F)F)cc(NC(=O)c2cc(Cl)ccc2O)cc1C(F)(F)F | Dose-dependent effect | 80 | 56 | – | – |
| O=C(Nc1cc(C(F)(F)F)cc(C(F)(F)F)c1)c1cc(-c2ccc(F)cc2F)ccc1O | Dose-dependent effect | 31 | 5 | – | – |
| O=C(Nc1cc(C(F)(F)F)c(Br)c(C(F)(F)F)c1)c1cc(Cl)ccc1O | Dose-dependent effect | 85 | 58 | – | – |
| O=C(Nc1cc(C(F)(F)F)cc(C(F)(F)F)c1)c1cc(Cl)cnc1O | Dose-dependent effect | 19 | 0 | – | – |
| O=C(Nc1ncc(C(F)(F)F)cc1Cl)c1cc(Cl)ccc1O | Dose-dependent effect | 0 | – | 0 | – |
| O=C(Nc1nc(C(F)(F)F)cs1)c1cc(Cl)ccc1O | Dose-dependent effect | 61 | – | 100 | – |
| CC(=O)Oc1ccc(Cl)cc1C(=O)Nc1cc(C(F)(F)F)cc(C(F)(F)F)c1 | Dose-dependent effect | 4 | 0 | – | – |
| O=C(Nc1ccc(Cl)nc1)c1cc(Cl)ccc1O | Dose-dependent effect | 6 | – | 39 | – |
| Cc1csc(NC(=O)c2cc(Cl)ccc2O)n1 | Dose-dependent effect | 0 | – | 67 | – |
| O=C(Nc1ccccn1)c1cc(Cl)ccc1O | Dose-dependent effect | 0 | – | 11 | – |
| O=C(Nc1cccc(C(F)(F)F)c1C(F)(F)F)c1cc(Cl)ccc1O | Dose-dependent effect | 77 | 29 | – | – |
| O=C(Nc1cc(Br)cc(C(F)(F)F)c1)c1cc(Cl)ccc1O | Dose-dependent effect | 100 | 64 | 100 | – |
| COc1ccc(O)c(C(=O)Nc2cc(C(F)(F)F)cc(C(F)(F)F)c2)c1 | Dose-dependent effect | 53 | 0 | – | – |
| O=C(Nc1cc(C(F)(F)F)cc(C(F)(F)F)c1)c1ccccc1O | Dose-dependent effect | 20 | 0 | – | – |
| O=C(Nc1cc(C(F)(F)F)ccc1Cl)c1cc(Cl)ccc1O | Dose-dependent effect | 99 | 64 | 100 | – |
| Cc1cc(C)cc(NC(=O)c2cc(Cl)ccc2O)c1 | Dose-dependent effect | 44 | – | 56 | – |

| SMILES | inhibition [1] | inhibition [2] [%] | inhibition [3] [%] | inhibition [4] [%] | inhibition [5] [%] |
| --- | --- | --- | --- | --- | --- |
| O=C(Nc1cc(C(F)(F)F)cc(C(F)(F)F)c1Cl)c1cc(Cl)ccc1O | Dose-dependent effect | 100 | 43 | – | – |
| O=C(Nc1cc(C(F)(F)F)cc(C(F)(F)F)c1)c1cc([N+](=O)[O-])ccc1O | Dose-dependent effect | 78 | 33 | – | – |
| O=C(Nc1cc(C(F)(F)F)cc(C(F)(F)F)c1)c1cc(Cl)ccc1OCc1ccccc1 | Dose-dependent effect | 6 | 0 | – | – |
| O=C(Nc1nccs1)c1cc(Cl)ccc1O | Dose-dependent effect | 44 | – | 90 | – |
| CC(=O)Nc1ccc(O)c(C(=O)Nc2cc(C(F)(F)F)cc(C(F)(F)F)c2)c1 | Dose-dependent effect | 0 | 0 | – | – |
| O=C(Nc1cc(C(F)(F)F)cc(C(F)(F)F)c1)c1cc2ccccc2cc1O | Dose-dependent effect | 96 | 58 | – | 72 |
| O=C(Nc1cc(C(F)(F)F)cc(C(F)(F)F)c1)c1ccc(Cl)cc1O | Dose-dependent effect | 74 | 29 | – | – |
| O=C(Nc1ccnc(Cl)c1)c1cc(Cl)ccc1O | Dose-dependent effect | 35 | – | 21 | – |
| O=C(Nc1cccc(C(F)(F)F)c1)c1cc(Cl)ccc1O | Dose-dependent effect | 91 | 37 | – | – |
| O=C(Nc1cc(Cl)c(Cl)c(Cl)c1)c1cc(Cl)ccc1O | Dose-dependent effect | 23 | 6 | – | – |
| O=C(Nc1ccccc1)c1cc(Cl)ccc1O | Dose-dependent effect | 13 | – | 75 | – |
| O=C(Nc1cc(C(F)(F)F)ccc1F)c1cc(Cl)ccc1O | Dose-dependent effect | 100 | 67 to 100 | 100 | – |
| O=C(Nc1ccc(C(F)(F)F)cc1)c1cc(Cl)ccc1O | Dose-dependent effect | 100 | 22 | – | – |
| O=C(Nc1ccc(C(F)(F)F)c(C(F)(F)F)c1)c1cc(Cl)ccc1O | Dose-dependent effect | 59 | 37 | – | – |
| N#Cc1ccc(O)c(C(=O)Nc2cc(C(F)(F)F)cc(C(F)(F)F)c2)c1 | Dose-dependent effect | 53 | 15 | – | – |
| Cc1cc(C)nc(NC(=O)c2cc(Cl)ccc2O)n1 | Dose-dependent effect | 0 | – | 0 | – |

More lines, now with the values ahead:

| inhibition [1] | inhibition [2] [%] | inhibition [3] [%] | inhibition [4] [%] | inhibition [5] [%] | SMILES |
| --- | --- | --- | --- | --- | --- |
| Dose-dependent effect | 100 | 100 | – | – | O=C(Nc1cc(C(F)(F)F)cc(C(F)(F)F)c1)c1cc(Cl)cc(Cl)c1O |
| Dose-dependent effect | 0 | 0 | – | – | O=C(Nc1cc(C(F)(F)F)cc(C(F)(F)F)c1)c1cnc2ccccc2c1O |
| Dose-dependent effect | 63 | 36 | – | – | O=C(NCc1cc(C(F)(F)F)cc(C(F)(F)F)c1)c1cc(Cl)ccc1O |
| Dose-dependent effect | 100 | 40 | – | – | O=C(Nc1cc(C(F)(F)F)ccc1Br)c1cc(Cl)ccc1O |
| Dose-dependent effect | 29 | – | 69 | – | N#Cc1ccc(NC(=O)c2cc(Cl)ccc2O)cc1 |
| Dose-dependent effect | 0 | – | 2 | – | O=C(Nc1ncccn1)c1cc(Cl)ccc1O |
| Dose-dependent effect | 14 | – | 55 | – | O=C(Nc1ccc(Cl)cn1)c1cc(Cl)ccc1O |
| Dose-dependent effect | 93 | 61 | – | – | O=C(Nc1cc(C(F)(F)F)cc(C(F)(F)F)c1)c1cccc(Cl)c1O |
| Dose-dependent effect | 98 | 53 | – | 76 | O=C(Nc1ccc(C(F)(F)F)cc1[N+](=O)[O-])c1cc(Cl)ccc1O |
| Dose-dependent effect | 86 | 64 | 98 | – | O=C(Nc1ccc(F)c(C(F)(F)F)c1)c1cc(Cl)ccc1O |
| Dose-dependent effect | 25 | – | 47 | – | O=C(Nc1ccc(C(F)(F)F)cn1)c1cc(Cl)ccc1O |
| Dose-dependent effect | 55 | 0 | – | – | O=C(Nc1cc(C(F)(F)F)cc(C(F)(F)F)c1)c1cc(F)ccc1O |
| Dose-dependent effect | 84 | 54 | – | – | O=C(Nc1cc(C(F)(F)F)cc(C(F)(F)F)c1)c1cc(Br)ccc1O |
| Dose-dependent effect | 21 | 0 | – | – | NC(=O)c1ccc(O)c(C(=O)Nc2cc(C(F)(F)F)cc(C(F)(F)F)c2)c1 |
| Dose-dependent effect | 64 | 0 | – | – | Cc1ccc(O)c(C(=O)Nc2cc(C(F)(F)F)cc(C(F)(F)F)c2)c1 |
| Dose-dependent effect | 79 | 32 | – | – | O=C(Nc1cc(C(F)(F)F)cc(C(F)(F)F)c1)c1ccc(C(F)(F)F)cc1O |
| Dose-dependent effect | 78 | 33 | – | – | Cc1cc(Cl)cc(C(=O)Nc2cc(C(F)(F)F)cc(C(F)(F)F)c2)c1O |
| Dose-dependent effect | 54 | 46 | – | – | O=C(Nc1cc(C(F)(F)F)ccc1C(F)(F)F)c1cc(Cl)ccc1O |
| Dose-dependent effect | 30 | 3 | – | – | Nc1ccc(O)c(C(=O)Nc2cc(C(F)(F)F)cc(C(F)(F)F)c2)c1 |
| Dose-dependent effect | 47 | 12 | 88 | – | N#Cc1cccc(NC(=O)c2cc(Cl)ccc2O)c1 |
| Dose-dependent effect | 94 | 51 | – | – | Cc1c(C(F)(F)F)cc(NC(=O)c2cc(Cl)ccc2O)cc1C(F)(F)F |
| Dose-dependent effect | 46 to 93 | 30 to 80 | 98 | – | O=C(Nc1ccc(Br)c(C(F)(F)F)c1)c1cc(Cl)ccc1O |
| Dose-dependent effect | 31 | – | 51 | – | O=C(Nc1c(F)c(F)nc(F)c1F)c1cc(Cl)ccc1O |
| Dose-dependent effect | 58 | 15 | – | – | O=C(Nc1cc(Cl)cc(Cl)c1)c1cc(Cl)ccc1O |
